In patent publication US11447485B2, “Class of bifunctional compounds with quanternary ammonium salt structure” (Beijing Showby Pharmaceutical Co., Ltd., priority 2016, dated 2022):
Like-named read-outs stand apart in the source and are kept apart here.

Columns and labels:
[1] = tested on: tracheal smooth muscle of guinea pig; experiment: Relaxation of CCh-induced constriction of isolated guinea pig tracheal smooth muscle (Experimental Example 1); conditions: in vitro; for EC50: constriction induced by CCh 3 × 10^−6 mol/L, read-out: EC50 (μM) ± SD; for Onset time (min) ± SD / Time for eliminating inhibition effect (min): CCh 3 × 10^−6 mol/L
[2] = target: T1, human recombinant β1 adrenoceptor (Homo sapiens, UniProt P08588); experiment: cAMP accumulation, human recombinant β1 adrenoceptor; format: cell-based
T1 construct: expressed in transfected cells
T1 sequence (P08588 whole entry): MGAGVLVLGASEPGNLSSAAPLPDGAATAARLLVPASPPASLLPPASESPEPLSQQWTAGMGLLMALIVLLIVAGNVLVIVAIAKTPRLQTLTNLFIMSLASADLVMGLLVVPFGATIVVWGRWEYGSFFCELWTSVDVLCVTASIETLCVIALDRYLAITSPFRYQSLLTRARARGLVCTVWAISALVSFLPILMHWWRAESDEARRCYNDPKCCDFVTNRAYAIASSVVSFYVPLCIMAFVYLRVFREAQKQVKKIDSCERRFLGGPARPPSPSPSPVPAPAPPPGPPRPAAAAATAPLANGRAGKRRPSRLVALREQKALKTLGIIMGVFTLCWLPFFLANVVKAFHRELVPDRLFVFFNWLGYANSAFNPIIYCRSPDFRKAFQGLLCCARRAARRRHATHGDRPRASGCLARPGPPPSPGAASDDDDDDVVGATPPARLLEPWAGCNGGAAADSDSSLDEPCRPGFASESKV
Experimental: In order to measure the activity and selectivity of agonists to human β1 and β2 adrenoceptors, the cAMP accumulation of expressed receptors in each recombinant cell line was measured. cAMP was determined by homology radioimmunoassay, that is, cells were washed with PSB buffer solution and suspended in the buffer solution at room temperature to grow to 30000-40000 cells per well. The test compound was diluted with PSB buffer solution containing 0.1% BSA and tested at 11 gradient concentrations ranging from 100 uM to 0.1 pM. For the analysis of β1-adrenoceptor, 10 nM of ICI118551 was added to block the expression of β2-adrenoceptor in HEK293 cells. After the compound was added to the suspended cells, the scintillation plate was incubated at 37° C. for 10 minutes, the reaction was terminated with ice-cold detection buffer solution, and its radioactivity was measured after storage at 4° C. overnight.
The agonistic activity (pEC50 value) was analyzed by regression using S-type dose response model of software package (GraphPad Software, San Diego, Calif.). Selectivity was calculated from the ratio of measured cAMP of β1 and β2 adrenoceptors, which was expressed as sel. β1/β2=(EC50 (β1)/EC50 (β2)).

[3] = target: T2, human recombinant β2 adrenoceptor (Homo sapiens, UniProt P07550); experiment: cell-based; format: cell-based; conditions: for EC50: cAMP accumulation
T2 construct: expressed in transfected cells

[4] = target: human recombinant M1 receptor (Homo sapiens, UniProt P11229); experiment: biochemical; format: binding
human recombinant M1 receptor, sequence (P11229 whole entry): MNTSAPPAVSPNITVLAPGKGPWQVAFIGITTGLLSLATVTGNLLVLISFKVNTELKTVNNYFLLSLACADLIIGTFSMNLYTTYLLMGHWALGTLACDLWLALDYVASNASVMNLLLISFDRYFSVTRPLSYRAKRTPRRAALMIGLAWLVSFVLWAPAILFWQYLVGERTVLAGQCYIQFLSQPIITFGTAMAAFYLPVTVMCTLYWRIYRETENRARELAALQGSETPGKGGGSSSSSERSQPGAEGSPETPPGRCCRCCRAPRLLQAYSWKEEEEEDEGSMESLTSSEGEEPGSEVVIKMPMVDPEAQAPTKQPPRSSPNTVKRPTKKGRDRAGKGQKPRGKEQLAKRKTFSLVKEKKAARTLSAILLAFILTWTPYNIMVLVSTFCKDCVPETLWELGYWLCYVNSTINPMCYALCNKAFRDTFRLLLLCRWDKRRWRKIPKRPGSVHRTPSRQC

[5] = target: human recombinant M2 receptor (Homo sapiens, UniProt P08172); experiment: biochemical; format: binding
human recombinant M2 receptor, sequence (P08172 whole entry): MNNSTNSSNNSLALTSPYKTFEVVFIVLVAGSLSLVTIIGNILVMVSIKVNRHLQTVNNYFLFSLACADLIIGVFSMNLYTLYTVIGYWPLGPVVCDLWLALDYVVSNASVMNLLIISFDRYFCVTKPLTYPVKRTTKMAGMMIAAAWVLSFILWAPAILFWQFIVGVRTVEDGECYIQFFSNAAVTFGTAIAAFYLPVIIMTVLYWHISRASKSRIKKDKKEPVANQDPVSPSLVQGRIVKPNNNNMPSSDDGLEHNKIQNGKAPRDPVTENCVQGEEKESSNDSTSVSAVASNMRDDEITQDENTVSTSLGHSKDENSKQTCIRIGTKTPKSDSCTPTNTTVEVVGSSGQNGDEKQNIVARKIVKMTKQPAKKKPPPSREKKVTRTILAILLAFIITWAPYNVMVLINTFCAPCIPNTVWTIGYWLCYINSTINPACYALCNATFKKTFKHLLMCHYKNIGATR

[6] = target: human recombinant M3 receptor (Homo sapiens, UniProt P20309); experiment: biochemical; format: binding
human recombinant M3 receptor, sequence (P20309 whole entry): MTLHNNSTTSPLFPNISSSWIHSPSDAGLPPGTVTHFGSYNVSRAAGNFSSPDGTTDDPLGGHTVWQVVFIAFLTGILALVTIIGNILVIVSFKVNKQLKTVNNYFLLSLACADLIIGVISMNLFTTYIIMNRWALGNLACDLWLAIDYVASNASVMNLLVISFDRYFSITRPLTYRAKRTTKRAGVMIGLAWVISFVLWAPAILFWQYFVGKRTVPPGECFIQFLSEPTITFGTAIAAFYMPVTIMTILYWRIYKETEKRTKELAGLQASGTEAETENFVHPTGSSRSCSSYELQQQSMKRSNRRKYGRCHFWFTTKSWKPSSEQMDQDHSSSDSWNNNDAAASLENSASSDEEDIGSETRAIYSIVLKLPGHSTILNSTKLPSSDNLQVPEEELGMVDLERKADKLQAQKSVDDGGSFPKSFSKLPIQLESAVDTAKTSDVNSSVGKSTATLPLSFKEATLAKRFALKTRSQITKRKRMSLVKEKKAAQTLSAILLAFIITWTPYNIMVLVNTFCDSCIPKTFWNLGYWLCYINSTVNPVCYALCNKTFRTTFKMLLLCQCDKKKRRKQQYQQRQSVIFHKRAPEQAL

moderate and severe COPD = conditions: phase II clinical study; cited from earlier work
[7] = cAMP accumulation, 10 nM ICI118551 added, HEK293 cells, read-out: EC50 (β1)
[8] = 3H-QNB […], 25° C., 5 h, read-out: hM1Ki
[9] = 3H-QNB 1.81 nmol/L, 25° C., 5 h, read-out: hM2Ki
[10] = 3H-QNB […], 25° C., 5 h, read-out: hM3Ki

| Molecule | EC50 [1] | EC50 [2, 7] | EC50 [3] | Ki [4, 8] | Ki [5, 9] | Ki [6, 10] | Onset time (min) ± SD [1] | Time for eliminating inhibition effect (min) [1] | sel (β1/β2) [3] | EC50 ([1]; Cavia porcellus) | EC50 [2] | Ki [4] | M1/M2 ([4]; Mx/My = Ki(y)/Ki(x)) | Ki [5] | Ki [6] | M1/M3 ([6]; Mx/My = Ki(y)/Ki(x)) | M2/M3 ([6]; Mx/My = Ki(y)/Ki(x)) | effect on moderate and severe COPD (moderate and severe COPD) |
| --- | --- | --- | --- | --- | --- | --- | --- | --- | --- | --- | --- | --- | --- | --- | --- | --- | --- | --- |
| O=CNc1cc([C@@H](O)CNCc2c(Cl)cc(OCCC[N+]34CCC(CC3)[C@@H](OC[C@](O)(c3ccccc3)C3CCCC3)C4)cc2Cl)ccc1O.[Br-] [Compound 59, (R)-(−)-3-[(R)-2-hydroxy-2-cyclopentyl-2-phenyl]ethoxy-1-{3-[(3,5-dichloro-4-(1-{(R)-[2-hydroxy-2-(3-formamido-4-hydroxy)phenyl]ethylamino}methyl)phenoxy)propyl}-1-azabicyclo[2,2,2]octylonium bromide] | 0.0165 ± 0.0075 µM | 83000 ± 31000 pM | 320 ± 120 pM | 283 ± 18 pM | 2000 ± 890 pM | 131 ± 22 pM |  |  |  |  |  |  |  |  |  |  |  |  |
| (R)-(−)-3-[(R)-2-hydroxy-2-cyclopentyl-2-phenyl]ethoxy-1-{3-[(4-(3-methyl-1-{(R)-[2-hydroxy-2-(6-hydroxy-2H-1,4-benzoxazin-3(4H)-one-8-yl)]ethylamino}ethylidene)phenoxy]propyl}-1-azabicyclo[2,2,2]octylonium bromide [Compound 63] | 0.0155 ± 0.0078 µM | 17000 ± 5800 pM |  | 49.3 ± 21 pM | 323 ± 170 pM | 19.8 ± 12 pM | 6.19 ± 0.12 min | more than 300 min | 80.8 |  |  |  |  |  |  |  |  |  |
| OCc1cc([C@@H](O)CNCCCC[N+]23CCC(CC2)[C@@H](OC[C@@](O)(c2ccccc2)C2CCCC2)C3)ccc1O [Compound 3, (R)-(−)-3-[(R)-2-hydroxy-2-cyclopentyl-2-phenyl]ethoxy-1-{4-[(R)-2-(3-hydroxymethyl-4-hydroxy)phenyl-2-hydroxyethylamino]butyl}-1-azabicyclo[2,2,2]octylonium bromide] |  |  | 10300 ± 2400 pM |  |  |  | 5.38 ± 0.68 min | more than 300 min | 15.6 | 0.355 ± 0.1 µM | 160000 ± 72000 pM | 767 ± 160 pM | 1.2229 | 938 ± 400 pM | 451 ± 180 pM | 0.5880 | 0.4808 |  |
| COc1cc(NC(=O)CCN2CCC(OC(=O)Nc3ccccc3-c3ccccc3)CC2)c(Cl)cc1CNC[C@H](O)c1ccc(O)c2[nH]c(=O)ccc12 [TD5959] |  |  |  |  |  |  |  |  |  |  |  |  |  |  |  |  |  | good effect on moderate and severe COPD |
